Data published in ChEMBL document CHEMBL1955738, “Synthesis and antitumor activity of 5,6-dihydro-17-hydroxy icogenin analogs” (Eur J Med Chem, 2012).

What was measured:
Type in all cases: functional, cell-based
BGC-823 = test: Cytotoxicity against human BGC823 cells by MTT assay
HeLa = test: Cytotoxicity against human HeLa cells by MTT assay
A549 = test: Cytotoxicity against human A549 cells by MTT assay
Bel-7402 = test: Cytotoxicity against human Bel7402 cells by MTT assay
A2780 = test: Cytotoxicity against human A2780 cells by MTT assay
HCT-8 = test: Cytotoxicity against human HCT8 cells by MTT assay
KB = test: Cytotoxicity against human KB cells by MTT assay
HL-60 = test: Cytotoxicity against human HL60 cells

| Structure (SMILES) | IC50 (BGC-823) [µM] | IC50 (HeLa) [µM] | IC50 (A549) [µM] | IC50 (Bel-7402) [µM] | IC50 (A2780) [µM] | IC50 (HCT-8) [µM] | IC50 (KB) [µM] | IC50 (HL-60) |
| --- | --- | --- | --- | --- | --- | --- | --- | --- |
| CO[C@]1(CC[C@@H](C)CO)O[C@H]2C[C@H]3[C@@H]4CCC5C[C@@H](O)CC[C@]5(C)[C@H]4CC[C@]3(C)[C@@]2(O)[C@@H]1C (some centres not stated) | > 10 | > 10 | > 10 | > 10 | > 10 | > 10 | > 10 | – |
| CO[C@]1(CC[C@@H](C)CO)O[C@H]2C[C@H]3[C@@H]4CCC5C[C@@H](O[C@@H]6O[C@H](CO)[C@@H](O)[C@H](O)[C@H]6O)CC[C@]5(C)[C@H]4CC[C@]3(C)[C@@]2(O)[C@@H]1C (some centres not stated) | > 10 | > 10 | > 10 | > 10 | > 10 | > 10 | > 10 | – |
| CO[C@]1(CC[C@@H](C)CO)O[C@H]2C[C@H]3[C@@H]4CCC5C[C@@H](O[C@H]6O[C@H](CO)[C@@H](O)[C@H](O)[C@H]6O[C@@H]6O[C@@H](C)[C@H](O)[C@@H](O)[C@H]6O)CC[C@]5(C)[C@H]4CC[C@]3(C)[C@@]2(O)[C@@H]1C (some centres not stated) | 4.29 | 7.8 | 3.68 | 8.3 | 7.96 | 3.38 | 5.97 | – |
| CO[C@]1(CC[C@@H](C)CO)O[C@H]2C[C@H]3[C@@H]4CCC5C[C@@H](O[C@H]6O[C@H](CO)[C@@H](O[C@@H]7O[C@H](CO)[C@@H](O)[C@H](O)[C@H]7O)[C@H](O)[C@H]6O[C@@H]6O[C@@H](C)[C@H](O)[C@@H](O)[C@H]6O)CC[C@]5(C)[C@H]4CC[C@]3(C)[C@@]2(O)[C@@H]1C (some centres not stated) | 7.97 | 8.31 | 1.9 | 9.69 | 8.21 | 6.05 | 5.24 | – |
| C[C@@H]1CC[C@@]2(OC1)O[C@H]1C[C@H]3[C@@H]4CC=C5C[C@@H](O[C@@H]6O[C@H](CO)[C@@H](O[C@@H]7O[C@@H](C)[C@H](O)[C@@H](O)[C@H]7O)[C@H](O)[C@H]6O[C@@H]6O[C@@H](C)[C@H](O)[C@@H](O)[C@H]6O)CC[C@]5(C)[C@H]4CC[C@]3(C)[C@H]1[C@@H]2C [DIOSCIN] | 1.08 | 0.5 | 0.81 | 0.81 | 0.87 | 0.34 | 0.53 | – |
| CO[C@]1(CC[C@H](C)CO)O[C@H]2C[C@H]3[C@@H]4CC=C5C[C@@H](O[C@@H]6O[C@H](CO)[C@@H](O)[C@H](O[C@@H]7O[C@H](CO)[C@@H](O)[C@H](O)[C@H]7O)[C@H]6O[C@@H]6O[C@@H](C)[C@H](O)[C@@H](O)[C@H]6O)CC[C@]5(C)[C@H]4CC[C@]3(C)[C@H]2[C@@H]1C [ICOGENIN] | – | – | – | – | – | – | – | 2.6 µM |
| C[C@@H](CC[C@@]1(O)O[C@H]2C[C@H]3[C@@H]4CC[C@@H]5C[C@@H](O[C@@H]6O[C@H](CO)[C@H](O)[C@H](O)[C@H]6O[C@@H]6O[C@H](CO)[C@@H](O)[C@H](O)[C@H]6O)CC[C@]5(C)[C@H]4CC[C@]3(C)[C@H]2[C@@H]1C)CO[C@@H]1O[C@H](CO)[C@@H](O)[C@H](O)[C@H]1O [TIMOSAPONIN BII] | – | – | – | – | – | – | – | 15.5 µg/mL |
